Reference: patent publication US6897316B2, “Substituted 2-phenyl-4-quinolone-3-carboxylic acid compounds and their use as antitumor agents” (China Medical University, priority 2003, dated 2005)
≈ marks a conversion by molar mass, not a printed value.

Columns and labels:
[1] = system: ileocecal carcinoma (HCT-8) cell line; test: Activity against HTCL replication, HCT-8; assay type: cell-based, human; conditions: mean ED50
Procedure: Compounds were assayed for in vitro cytotoxicity in a panel of human tumor cell lines at the School of Pharmacy, University of North Carolina at Chapel Hill, according to procedures described previously [Lee, K. H., Lin, Y. M., Wu, T. S., Zhang, D. C., Yamagishi, T., Hayashi, T., Hall, I. H., Chang, J. J., Wu, R. Y., Yang, T. H. The cytotoxic principles of Prunella vulgaris, Psychotria serpens, and Hyptis capitata: Ursolic acid and related derivatives. Planta Med. 1988, 54, 308-11; Boyd, M. R. Status of the National Cancer Institute preclinical antitumor drug discovery screen: implications for selection of new agents for clinical trial. Devita, V. T., Jr. Hellman, S., Rosenberg, S. A., Eds, J. B. Cancer: Principles and Practice of Oncology Update, 1989, 3: pp1-12, Lippincoft: Philadephia; Monks, A., Scudiero, D., Skehan, P., Shoemaker, R., Paull, K., Vistica, D., Hose, C., Langley, J., Cronise, P., Vaigro-Wolff, A., Gray-Goodrich, M., Campbell, H., Mayo, J., Boyd, M. Feasibility of a high-flux anticancer drug screen using a diverse panel of cultured human tumor cell lines. J. Natl. Cancer Inst. 1991, 83, 757-66.] […]

[2] = system: human ovarian cancer (IA9) cell line; test: Activity against HTCL replication, IA9; assay type: cell-based
Procedure: Compounds were assayed for in vitro cytotoxicity in a panel of human tumor cell lines at the School of Pharmacy, University of North Carolina at Chapel Hill, according to procedures described previously [Lee, K. H., Lin, Y. M., Wu, T. S., Zhang, D. C., Yamagishi, T., Hayashi, T., Hall, I. H., Chang, J. J., Wu, R. Y., Yang, T. H. The cytotoxic principles of Prunella vulgaris, Psychotria serpens, and Hyptis capitata: Ursolic acid and related derivatives. Planta Med. 1988, 54, 308-11; Boyd, M. R. Status of the National Cancer Institute preclinical antitumor drug discovery screen: implications for selection of new agents for clinical trial. Devita, V. T., Jr. Hellman, S., Rosenberg, S. A., Eds, J. B. Cancer: Principles and Practice of Oncology Update, 1989, 3: pp1-12, Lippincoft: Philadephia; Monks, A., Scudiero, D., Skehan, P., Shoemaker, R., Paull, K., Vistica, D., Hose, C., Langley, J., Cronise, P., Vaigro-Wolff, A., Gray-Goodrich, M., Campbell, H., Mayo, J., Boyd, M. Feasibility of a high-flux anticancer drug screen using a diverse panel of cultured human tumor cell lines. J. Natl. Cancer Inst. 1991, 83, 757-66.] The cell lines included human ovarian cancer (1A9), ileocecal carcinoma (HCT-8), lung carcinoma (A-549), glioblastoma (U-87-MG), bone (HOS), epidermoid carcinoma of the […] (KB), P-gp-expressing epidermoid carcinoma of the nasopharynx (KB-VIN), and melanoma (SKMEL-2) cell line. The cytotoxic effects of each compound were obtained as EC50 values, which represent the molar drug concentrations required to cause 50% inhibition.
Antitumor activity of compounds IX-8 and X-8 was further tested on the following 8 cancer cell lines: CAKI, HOS, KB, KB-VIN, SK-MEL-2, U87-MG, HCT-8 and IA9. […] It is worth mentioning that these two compounds were quite active against human ovarian cancer cells (IA9), which were known to have a high level of drug resistant P-glycoprotein. IC50 of compound IX-8 against these cancer cells is only 0.03 μg/mL. Thus, this compound is really worth developing, particular against drug resistant ovarian cancer.

IC50 ([2]; Homo sapiens, IA9, as worded in text, read-out: IC50 against human ovarian cancer cells (IA9)): 0.03 µg/mL (≈ 0.0958 µM)
SMILES: COc1ccc2[nH]c(-c3cccc(F)c3)c(C(=O)O)c(=O)c2c1 [IX-8, 3′-Fluoro-6-methoxy-2-phenyl-4-quinolone-3-carboxylic acid]
ED50 HCT-8 [1]: 0.14 µg/mL (≈ 0.447 µM) | ED50 IA9 ([2]; ovarian cancer IA9, mean ED50): 0.03 µg/mL (≈ 0.0958 µM)
